From BindingDB's records for doi:10.1016/0960-894X(95)00398-D (1995)

Molecular target: Beta-2 adrenergic receptor (Rattus norvegicus) (UniProt P10608)
Assay: Compound was evaluated for its binding affinity to beta-2 receptor in rat brain using [3H]- DHA radioligand assay

Beta-2 adrenergic receptor (Rattus norvegicus), sequence (P10608 whole entry, looked up): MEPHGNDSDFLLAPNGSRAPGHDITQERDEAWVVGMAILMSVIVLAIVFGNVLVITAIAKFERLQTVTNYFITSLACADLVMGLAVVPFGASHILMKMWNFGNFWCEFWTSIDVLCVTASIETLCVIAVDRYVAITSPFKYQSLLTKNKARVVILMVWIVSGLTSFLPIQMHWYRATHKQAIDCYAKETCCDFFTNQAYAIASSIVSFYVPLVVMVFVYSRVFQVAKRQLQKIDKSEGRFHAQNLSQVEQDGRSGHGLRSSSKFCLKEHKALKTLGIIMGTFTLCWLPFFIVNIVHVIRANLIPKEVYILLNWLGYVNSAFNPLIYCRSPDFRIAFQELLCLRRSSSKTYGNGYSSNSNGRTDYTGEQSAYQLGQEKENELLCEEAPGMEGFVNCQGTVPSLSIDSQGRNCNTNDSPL

`COc1cccc2c1CCC[C@H]2CN(C)CCc1ccc2ccoc2c1` [A-80426] gave a Ki of 1740 nM.
